# In patent US11957699B2, “Composition comprising punicalagin for inhibiting PAR2 activity” (INDUSTRY-ACADEMIC COOPERATION FOUNDATION, YONSEI UNIVERSITY, priority 2018, dated 2024):
# Tests used:
# [1] = system: C57BL6N mice with pruritus induced by PAR2-AP; assay: Pruritus induced by PAR2-AP in mice (number of scratches); assay type: in vivo; conditions: for number of scratches during the initial 10 minutes: saline group 104; for number of scratches for 40 minutes: PAR2-AP group about 240
# Protocol: In seven-week-old C57BL6N mice, it was confirmed whether punicalagin (PG) has an effect of alleviating pruritus symptoms induced by PAR2 receptor activation by PAR2-AP (activating peptide). In addition, the effects of punicalin (PNC) and ellagic acid (EA), which are metabolites of punicalagin and contained in pomegranate peel in a large amount, were also confirmed.
# Specifically, each of 0, 1, 3, and 10 mg/kg punicalagin (n=4) was dissolved in physiological saline and intraperitoneally injected, and after 30 minutes, 100 μg of PAR2-AP was intradermally injected to induce pruritus. As control groups, a group which was intraperitoneally injected with physiological saline only (n=4) and a group which was intraperitoneally injected with 10 mg/kg punicalagin (n=4) were established, and the number of scratches was measured for 40 minutes.
# [2] = molecular target: T1, PAR2 (Homo sapiens, UniProt P55085); assay: CaCC-dependent Cl- secretion (short-circuit current, Ussing chamber) by PAR2-AP in primary cultured human conjunctival epithelial cells; assay type: cell-based; parameters: endogenous in cells; conditions: 10 μM for 10 minutes, 100 μM PAR2-AP, after 100 μM amiloride
# T1 sequence (P55085 26-397): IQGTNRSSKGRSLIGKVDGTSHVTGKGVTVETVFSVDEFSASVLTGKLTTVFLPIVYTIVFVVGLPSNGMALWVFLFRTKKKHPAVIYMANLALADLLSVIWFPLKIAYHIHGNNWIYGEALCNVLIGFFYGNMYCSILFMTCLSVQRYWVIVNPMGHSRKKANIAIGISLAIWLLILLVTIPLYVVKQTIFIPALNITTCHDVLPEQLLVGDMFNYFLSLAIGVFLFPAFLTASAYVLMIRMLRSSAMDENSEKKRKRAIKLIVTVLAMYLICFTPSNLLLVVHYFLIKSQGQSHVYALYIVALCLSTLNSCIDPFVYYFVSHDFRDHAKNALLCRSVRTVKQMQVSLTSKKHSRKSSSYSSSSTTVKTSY
# Protocol: After primary cultured human conjunctival epithelial cells expressing PAR2 were cultured in a transwell, followed by removal of a culture medium on the side of an apical membrane, retinoic acid was added to the side of a basolateral membrane to differentiate for about 2 weeks (Invest Ophthalmol Vis Sci. 2013 Oct. 29; 54(10): 7143-52), and then, short-circuit currents were measured using a Ussing chamber. […] Next, by treating 10 μM forskolin, which is a an activator of the cystic fibrosis transmembrane conductance regulator (CFTR), the effect of promoting Cl^− secretion by the cystic fibrosis transmembrane conductance regulator (CFTR) channel was measured, and then, by treating 10 μM CFTRihn-172(5-[(4-carboxyphenyl)methylene]-2-thioxo-3-[(3-trifluoromethyl)phenyl-4-thiazolidinone]) (J Clin Invest. 2002 December; 110(11): 1651-8), which is a CFTR inhibitor, it was confirmed that Cl^− secretion by the CFTR channel was inhibited (panel A of FIG. 3).
# Meanwhile, Cl^− secretion by PAR1-AP was not measured as a result of the above experiment, and in order to confirm the inhibitory effect of Cl^− secretion during punicalagin treatment. […]
# [3] = system: heart, liver, and lung tissues of lupus mice; assay: Histology (hematoxylin-eosin) of heart, liver and lung of lupus mice; assay type: in vivo; conditions: 3 mg/kg, 1 mg/kg, and 0.3 mg/kg; vs saline or methylprednisolone groups
# Protocol: (§1) In order to determine the toxicity of punicalagin, the effect of NIH3T3 cells on cell viability and the weight change of 8-week-old wild-type mice were evaluated, and the heart, liver, and lung were extracted from 30-week-old lupus mice and were histologically evaluated by performing hematoxylin-eosin staining.
# [4] = system: SD rats with acute pancreatitis induced by caerulein; assay: Acute pancreatitis induced by caerulein in rats; assay type: in vivo
# Protocol: In 6-week-old SD rats, it was confirmed whether punicalagin has an effect of alleviating symptoms of acute pancreatitis induced by caerulein.
# Specifically, […], and after 30 minutes, 40 μg/kg of caerulein, which is an acute pancreatitis-inducing substance, was intraperitoneally injected, and then, after 2 hours, the pancreas of the experimental animals was extracted and analyzed.
# First, the weight of the extracted pancreas was measured to determine whether punicalagin inhibits edema, which is a symptom of acute pancreatitis. As a result, it was confirmed that when 10 mg/kg punicalagin was administered to […], in which acute pancreatitis was induced by caerulein, the edema of the pancreas was inhibited by 95% or more (panel A of FIG. 8).
# Next, as a result of observing the nucleus and cytoplasm of the extracted pancreatic tissue with a microscope through H&E staining in order to confirm the damage to pancreatic cells by caerulein, it was confirmed that in the rats administered with caerulein, the distance between pancreatic cells was increased and the cells were damaged due to symptoms of acute pancreatitis.
# [5] = system: conjunctival epithelial cells; assay: IL-6 secretion by house dust mite (HDM) in conjunctival epithelial cells (enzyme immunoassay); assay type: cell-based, human; conditions: 10 μg/mL HDM 24 hours
# Protocol: Next, conjunctival epithelial cells showing a high response to the concentration increase of intracellular calcium ions by HDM and PAR2-AP were treated with 1, 3, and 10 μM punicalagin, and after treating with 10 μg/mL HDM for 24 hours, secreted IL-6 cytokines were measured by enzyme immunoassay. As a result, it was confirmed that 1, 3, and 10 μM punicalagin inhibited about 50, 91, and 93% of IL-6 cytokines that were increased by HDM, respectively (panel C of FIG. 5).
# [6] = Weight change of wild-type mice; assay type: in vivo; conditions: 10 mg/kg intraperitoneally at 2-day intervals
# Protocol: as §1
structure (smiles),measurement,setting,value
"O=CC1OC(=O)c2cc(O)c(O)c(O)c2-c2c(cc(O)c(O)c2O)C(=O)OC1C1OC(=O)c2cc(O)c(O)c(O)c2-c2c(O)c(O)c3oc(=O)c4c(c(O)c(O)c5oc(=O)c2c3c54)-c2c(cc(O)c(O)c2O)C(=O)OCC1O (stereo not drawn) [punicalagin, 1,2,3,11,12,13-hexahydroxy-5,10-dioxo-8-[3,4,5,11,17,18,19,22,23,34,35-undecahydroxy-8,14,26,31-tetraoxo-9,13,25,32-tetraoxaheptacyclo[25.8.0.0^2,7.0^15,20.0^21,30.0^24,29.0^28,33]pentatnaconta-1(35),2,4,6,15,17,19,21,23,27,29,33-dodecaen-10-yl]-5,7,8,10-tetrahydrodibenzo[f,h][1,4]dioxecin-7-carbaldehyde]",number of scratches during the initial 10 minutes,"[1]; 1 mg/kg intraperitoneally, 100 μg PAR2-AP intradermally",about 59 times
same,number of scratches for 40 minutes,[1]; 1 mg/kg,about 188 times
same,number of scratches during the initial 10 minutes,[1]; 3 mg/kg intraperitoneally,~28 times
same,number of scratches for 40 minutes,[1]; 3 mg/kg,~103 times
same,number of scratches during the initial 10 minutes,[1]; 10 mg/kg intraperitoneally,~14 times
same,number of scratches for 40 minutes,[1]; 10 mg/kg,~40 times
same,increase in CaCC-dependent Cl- secretion on PAR2 activation,[2],inhibited
same,"histological difference in heart, liver, and lung tissues",[3],no histological difference
same,inhibition of edema of the pancreas (pancreas weight),"[4]; 10 mg/kg, 30 minutes before 40 μg/kg caerulein, pancreas extracted after 2 hours",≥ 95%
same,edema of the pancreas and cell damage (H&E staining),"[4]; pretreated at 3 mg/kg, then caerulein",strongly inhibited
same,"concentrations of inflammatory cytokines (INF-γ, IL-2, IL-4, IL-6, IL-β, TNF-α, IL-1β, etc.) increased by caerulein","[4]; rat, in vivo",significantly decreased
same,inhibition of IL-6 cytokines increased by HDM,[5]; 1 μM,about 50%
same,inhibition of IL-6 cytokines increased by HDM,[5]; 3 μM,~91%
same,inhibition of IL-6 cytokines increased by HDM,[5]; 10 μM,~93%
same,weight change in wild-type mice,[6],no weight change
